In series [1] the test system is allergen-induced degranulation of peripheral leukocytes. Briefly: Inhibition of the allergen-induced degranulation reaction of peripheral leukocytes (method of Siraganian and Hook). The format is cell-based. The settings on record: Homo sapiens, Leukocyte. As to the method: For the detection of the anti-allergic action, there was measured the inhibition of the allergen-induced degranulation reaction of peripheral leukocytes; one operated according to the method of R. P. Siraganian and W. A. Hook (Manual of Clinical Immunology, 2nd edition 1980, pub. N. R. Rose and H. Friedman, Am. Soc. for Microbiology, pages 808 to 821).

In series [2] the test system is mouse. Put plainly: Toxicity LD50 p.o., mouse. The settings on record: thiolutin vs theophylline. The series is classed as in vivo.
Series [3] concerns mouse. Particulars: p.o., Table I, for the toxicity cf. literature named; cited from earlier work.
For series [4], the system named is gram-positive and gram-negative bacteria, pathogenic fungi and protozoa. Particulars: Celmer and Solomons, J. Am. Chem. Soc. 77 (1955) 2861; cited from earlier work.
Where [5] appears, read: Table I, 50% inhibition in vitro, read-out: ID50 (the source's name).

pIC50: −log10 of the molar value. Where a name gives a salt, the structure may show the parent alone. Read-outs that look alike come from different tables or passages of the source.

On to `CC(C)C(=O)Nc1c2sscc-2n(C)c1=O` [isobutyrylpyrrothine], for which the pIC50 in series [1] (setting [5]) is 5.77.

Turning to `CN(C)C1=C(S)C(=CS)N(C)C1=O` [Example 5, 3-Dimethylamino-4-mercapto-5-mercaptomethylene-1-methylpyrrolin-2-one disodium salt], the pIC50 was 4.30 in series [1] (Examples 3 to 5, no unit printed at the value, read-out: ID50 (the source's name)) and 5.30 in series [1] (setting [5]).

In the case of `CC(=O)NC1=C(S)C(=CS)N(C)C1=O` [Example 3, 3-Acetamido-4-mercapto-5-mercaptomethylene-1-methylpyrrolin-2-one disodium salt], the pIC50 in series [1] (setting [5]) is 5.60.

The LD50 is the dose expected to kill half of the subjects tested. As for `CC(=O)Nc1c2sscc-2n(C)c1=O` [thiolutin], in series [1] (read-out: ID50), the pIC50 is 6.40. The “factor of therapeutic index against comparison compound theophylline” value in the series with mouse [2] is reported as “more than 10^4”. For the same molecule, the LD50 with mouse [3] is 25 mg/kg. Moreover, in series [4], the “antibiotic action, in words” value was “action against gram-positive and gram-negative bacteria, pathogenic fungi and protozoa”.

Regarding `Cn1c2cssc-2c(N)c1=O` [pyrrothine, 4-methyl-6-amino-1,2-dithiolo[4,3-b]pyrrol-5(4H)-one], in series [1] (setting [5]), the pIC50 is 6.05.

Regarding `Cn1c(=O)c2[nH]cnc2n(C)c1=O` [theophylline, reference compound], the pIC50 in series [1] (setting [5]) is 2.30.

Consider `CCC(=O)Nc1c2sscc-2n(C)c1=O` [aureothricin], for which the pIC50 in series [1] (read-out: ID50 (the source's name)) is 6.05. The “antibiotic action, in words” value in series [4] was “action against gram-positive and gram-negative bacteria, pathogenic fungi and protozoa”.

Take `CN(C)c1c2sscc-2n(C)c1=O` [Example 4, N,N-Dimethylpyrrothine]: in series [1] (setting [5]), the pIC50 is 5.34.
